Twelve compounds from patent publication US12129246B1, “Hydroquinazoline derivatives for the treatment of a disease or disorder” (Novartis AG, priority 2023, dated 2024) can be followed below.

The target of this test is T1, human NPR1 (Homo sapiens, UniProt P16066).
T1 construct: host or cells: CHO-K1
T1 sequence (P16066 33-1061): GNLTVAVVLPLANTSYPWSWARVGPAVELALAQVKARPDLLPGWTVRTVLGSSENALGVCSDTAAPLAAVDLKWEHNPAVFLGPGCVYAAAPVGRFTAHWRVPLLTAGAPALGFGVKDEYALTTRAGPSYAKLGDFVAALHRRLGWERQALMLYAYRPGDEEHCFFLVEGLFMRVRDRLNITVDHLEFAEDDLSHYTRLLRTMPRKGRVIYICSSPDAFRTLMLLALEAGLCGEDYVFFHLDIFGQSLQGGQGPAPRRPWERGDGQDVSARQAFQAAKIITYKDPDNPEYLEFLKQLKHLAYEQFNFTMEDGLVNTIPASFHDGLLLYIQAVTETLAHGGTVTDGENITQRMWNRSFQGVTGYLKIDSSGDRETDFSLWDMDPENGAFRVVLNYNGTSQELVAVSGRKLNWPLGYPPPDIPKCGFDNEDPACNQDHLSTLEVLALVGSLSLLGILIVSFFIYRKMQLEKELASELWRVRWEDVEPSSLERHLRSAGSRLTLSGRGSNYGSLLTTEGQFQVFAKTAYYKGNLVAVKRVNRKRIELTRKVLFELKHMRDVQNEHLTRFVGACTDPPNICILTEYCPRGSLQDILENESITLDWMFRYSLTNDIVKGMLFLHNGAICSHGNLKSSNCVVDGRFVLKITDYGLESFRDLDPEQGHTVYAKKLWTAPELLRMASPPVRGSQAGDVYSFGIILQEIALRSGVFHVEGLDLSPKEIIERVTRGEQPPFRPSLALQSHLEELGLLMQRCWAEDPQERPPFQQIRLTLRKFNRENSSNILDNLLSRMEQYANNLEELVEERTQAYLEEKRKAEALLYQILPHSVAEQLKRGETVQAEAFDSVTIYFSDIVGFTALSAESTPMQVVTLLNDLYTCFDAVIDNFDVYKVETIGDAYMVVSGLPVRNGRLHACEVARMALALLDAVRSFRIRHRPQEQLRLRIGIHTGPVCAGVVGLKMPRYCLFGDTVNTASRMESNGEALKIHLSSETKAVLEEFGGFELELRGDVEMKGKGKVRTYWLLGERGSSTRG
Briefly: Cellular cGMP production assay, human NPR1 expressing CHO-K1 cells (CisBio HTRF). Format: cell-based. The conditions noted are these: for AC50: cGMP production, 30 min at 37° C., 12-point dose-response from 30 μM; for Human NPR1 Amax (% of ANP): maximum cGMP production as percentage of the maximum cGMP produced with ANP. The protocol: Cellular cGMP is a major second messenger that mediates cell activities and is synthesized by activated NPR1 triggered by binding of the natural ligand ANP. […] The assay was performed according to manufacturer's instructions with minor deviations. […] All compound stocks were diluted in PBS+0.1% BSA at 2-fold the final assay concentration. After addition of 10 μL/well of assay buffer (PBS+0.1% BSA+1 mM IBMX) and 10 μL/well of the compounds in different concentrations (12-point dose-response with 3-fold dilutions from a top concentration of 30 μM), the plate was incubated for 30 min at 37° C. to allow for cGMP production. In parallel, a standard curve using a calibrator (contained in the kit) was generated. The cells were lysed and a mix of cGMP-d2 and anti-cGMP-cryptate was added and incubated for 1 h at room temperature. The readout was performed using an Envision plate reader (PerkinElmer) with an excitation wavelength of 317 nm and an emission wavelength of 665 nm. cGMP concentration (Delta F [° %]) was calculated according to the following formulae: […]

In the case of `CC[C@H]([C@H]1CC[C@H](C(=O)O)CC1)N(C)c1nc2c(c(N[C@@H](CN3C[C@H](C)C[C@@H](OC)C3)c3cnn(C)c3)n1)C[C@H](c1ccccc1)CC2` [Compound 183, (1R,4r)-4-((R)-1-(((R)-4-(((R)-2-((3R,5R)-3-methoxy-5-methylpiperidin-1-yl)-1-(1-methyl-1H-pyrazol-4-yl)ethyl)amino)-6-phenyl-5,6,7,8-tetrahydroquinazolin-2-yl)(methyl)amino)propyl)cyclohexane-1-carboxylic acid], the AC50 worked out at 380 nM and the “Human NPR1 Amax (% of ANP)” value was 98.57 % of ANP.

For `CC[C@H]([C@H]1CC[C@H](C(=O)O)CC1)N(C)c1nc2c(c(N[C@@H](CN3CCC[C@H](C)C3)c3cn(C)nc3F)n1)C[C@H](c1ccccc1)CC2` (stereo in doubt) [Compound 185, (1R,4r)-4-((R)-1-(((R)-4-(((S)-1-(3-fluoro-1-methyl-1H-pyrazol-4-yl)-2-((S)-3-methylpiperidin-1-yl)ethyl)amino)-6-phenyl-5,6,7,8-tetrahydroquinazolin-2-yl)(methyl)amino)propyl)cyclohexane-1-carboxylic acid], the AC50 came to 201 nM and the “Human NPR1 Amax (% of ANP)” value is recorded as 98.01 % of ANP.

With `CC[C@H]([C@H]1CC[C@H](C(=O)O)CC1)N(C)c1nc2c(c(N[C@@H](CN3CCC[C@@](C)(O)C3)c3cnn(C)c3)n1)C[C@H](c1ccccc1)CC2` [Compound 182, (1R,4r)-4-((R)-1-(((R)-4-(((R)-2-((R)-3-hydroxy-3-methylpiperidin-1-yl)-1-(1-methyl-1H-pyrazol-4-yl)ethyl)amino)-6-phenyl-5,6,7,8-tetrahydroquinazolin-2-yl)(methyl)amino)propyl)cyclohexane-1-carboxylic acid], the activity was half-maximal at 250 nM (AC50) and the “Human NPR1 Amax (% of ANP)” value was 110.06 % of ANP.

On to `CC[C@H]([C@H]1CC[C@H](C(=O)O)CC1)N(C)c1nc2c(c(N[C@@H](CN3CCC[C@](O)(CC)C3)c3cnn(C)c3)n1)C[C@H](c1ccccc1)CC2` [Compound 178, (1R,4r)-4-((R)-1-(((R)-4-(((R)-2-((R)-3-ethyl-3-hydroxypiperidin-1-yl)-1-(1-methyl-1H-pyrazol-4-yl)ethyl)amino)-6-phenyl-5,6,7,8-tetrahydroquinazolin-2-yl)(methyl)amino)propyl)cyclohexane-1-carboxylic acid], for which the AC50 is 362 nM and the “Human NPR1 Amax (% of ANP)” value is reported as 112.78 % of ANP.

`CC[C@H]([C@H]1CC[C@H](C(=O)O)CC1)N(C)c1nc2c(c(N[C@@H](CN3C[C@@H](C)C[C@H](OC)C3)c3cnn(C)c3)n1)C[C@H](c1ccccc1)CC2` [Compound 184, (1R,4r)-4-((R)-1-(((R)-4-(((R)-2-((3S,5S)-3-methoxy-5-methylpiperidin-1-yl)-1-(1-methyl-1H-pyrazol-4-yl)ethyl)amino)-6-phenyl-5,6,7,8-tetrahydroquinazolin-2-yl)(methyl)amino)propyl)cyclohexane-1-carboxylic acid]: the AC50 came out at 940 nM and the “Human NPR1 Amax (% of ANP)” value is 103.67 % of ANP.

As to `CC[C@H]([C@H]1CC[C@H](C(=O)O)CC1)N(C)c1nc2c(c(N[C@@H](CN3CCC[C@@H]4C[C@@H]43)c3cnn(C)c3)n1)C[C@H](c1ccccc1)CC2` [Compound 177, (1R,4r)-4-((R)-1-(((R)-4-(((R)-2-((1S,6R)-2-azabicyclo[4.1.0]heptan-2-yl)-1-(1-methyl-1H-pyrazol-4-yl)ethyl)amino)-6-phenyl-5,6,7,8-tetrahydroquinazolin-2-yl)(methyl)amino)propyl)cyclohexane-1-carboxylic acid], the AC50 worked out at 488 nM and the “Human NPR1 Amax (% of ANP)” value is 107.75 % of ANP.

Regarding `CC[C@H]([C@H]1CC[C@H](C(=O)O)CC1)N(C)c1nc2c(c(N[C@@H](CN3CCC[C@H]4C[C@H]43)c3cnn(C)c3)n1)C[C@H](c1ccccc1)CC2` [Compound 176, (1R,4r)-4-((R)-1-(((R)-4-(((R)-2-((1R,6S)-2-azabicyclo[4.1.0]heptan-2-yl)-1-(1-methyl-1H-pyrazol-4-yl)ethyl)amino)-6-phenyl-5,6,7,8-tetrahydroquinazolin-2-yl)(methyl)amino)propyl)cyclohexane-1-carboxylic acid], the activity was half-maximal at 359 nM (AC50) and the “Human NPR1 Amax (% of ANP)” value was 107.70 % of ANP.

For the compound `CC[C@H]([C@H]1CC[C@H](C(=O)O)CC1)N(C)c1nc2c(c(N[C@@H](CN3CCC[C@](C)(O)C3)c3cnn(C)c3)n1)C[C@H](c1ccccc1)CC2` [Compound 186, (1R,4r)-4-((R)-1-(((R)-4-(((R)-2-((S)-3-hydroxy-3-methylpiperidin-1-yl)-1-(1-methyl-1H-pyrazol-4-yl)ethyl)amino)-6-phenyl-5,6,7,8-tetrahydroquinazolin-2-yl)(methyl)amino)propyl)cyclohexane-1-carboxylic acid], the activity was half-maximal at 406 nM (AC50) and the “Human NPR1 Amax (% of ANP)” value is on record as 110.66 % of ANP.

Take `CC[C@H]([C@H]1CC[C@H](C(=O)O)CC1)N(C)c1nc2c(c(N[C@@H](CN3CCCC4(CC4)C3)c3cnn(C)c3)n1)C[C@H](c1ccccc1)CC2` [Compound 180, (1R,4r)-4-((R)-1-(methyl((R)-4-(((R)-1-(1-methyl-1H-pyrazol-4-yl)-2-(5-azaspiro[2.5]octan-5-yl)ethyl)amino)-6-phenyl-5,6,7,8-tetrahydroquinazolin-2-yl)amino)propyl)cyclohexane-1-carboxylic acid]: half-maximal activity (AC50) was put at 465 nM and the “Human NPR1 Amax (% of ANP)” value is 86.52 % of ANP.

Turning to `CC[C@H]([C@H]1CC[C@H](C(=O)O)CC1)N(C)c1nc2c(c(N[C@@H](CN3CC[C@@H](OC)C3)c3cnn(C)c3)n1)C[C@H](c1ccccc1)CC2` [Compound 181, (1R,4r)-4-((R)-1-(((R)-4-(((R)-2-((R)-3-methoxypyrrolidin-1-yl)-1-(1-methyl-1H-pyrazol-4-yl)ethyl)amino)-6-phenyl-5,6,7,8-tetrahydroquinazolin-2-yl)(methyl)amino)propyl)cyclohexane-1-carboxylic acid], half-maximal activity (AC50) was put at 1810 nM and the “Human NPR1 Amax (% of ANP)” value is reported as 101.57 % of ANP.

Turning to `CC[C@H]([C@H]1CC[C@H](C(=O)O)CC1)N(C)c1nc2c(c(N[C@@H](CN3CC[C@@H](O)[C@H](C)C3)c3cnn(C)c3)n1)C[C@H](c1ccccc1)CC2` [Compound 179, (1R,4r)-4-((R)-1-(((R)-4-(((R)-2-((3R,4R)-4-hydroxy-3-methylpiperidin-1-yl)-1-(1-methyl-1H-pyrazol-4-yl)ethyl)amino)-6-phenyl-5,6,7,8-tetrahydroquinazolin-2-yl)(methyl)amino)propyl)cyclohexane-1-carboxylic acid], the activity was half-maximal at 2710 nM (AC50) and the “Human NPR1 Amax (% of ANP)” value is recorded as 97.72 % of ANP.

Consider `CC[C@@H](Nc1nc2c(c(N[C@@H](CN3CCCC(CF)C3)c3cnn(C)c3)n1)C[C@H](c1cccc(F)c1)CC2)[C@H]1CC[C@H](C(=O)O)CC1` (stereo partly drawn) [Compound 175, (1R,4r)-4-((1R)-1-(((6R)-4-(((1R)-2-(3-(fluoromethyl)piperidin-1-yl)-1-(1-methyl-1H-pyrazol-4-yl)ethyl)amino)-6-(3-fluorophenyl)-5,6,7,8-tetrahydroquinazolin-2-yl)amino)propyl)cyclohexane-1-carboxylic acid], for which the AC50 turned out to be 89 nM and the “Human NPR1 Amax (% of ANP)” value is 109.91 % of ANP.
